For series [1] the following is noted: in vivo; cited from earlier work.
The nature of series [2]: Emulsifying agents tested for emulsification of coconut oil and water (Example 2). The class given is physicochemical. The conditions noted are these: coconut oils solid and liquid (MCT).
Excerpt: Several experiments were run using several different emulsifiers and combinations of different coconut oils: solid and liquid (MCT). (Note: liquid MCT is coconut oil that has medium chain triglyceride).
The conditions of series [3]: edible Cannabis products; depending on liver function; cited from earlier work.

The text below walks through data of patent US12194018B2, “Cannabinoid compositions” (SRE Wellness, Inc., priority 2016, dated 2025).

Turning to `C=C(C)[C@@H]1CCC(C)=C[C@H]1c1c(O)cc(CCCCC)cc1O` [CBD, cannabidiol], the “Risk of lethal overdose” value in series [1] was “no risk of lethal overdose”.

As for cyclodextrin, the “Effectiveness as emulsifying agent (emulsification of the oil and water)” value in series [2] is on record as “good results”.

`CCCCCc1cc(O)c2c(c1)OC(C)(C)[C@@H]1CCC(C)=C[C@@H]21` [THC, Δ^9-tetrahydrocannabinol]: the “Share of the THC able to be metabolized” value in series [3] is listed as 2-6%. The “Risk of lethal overdose” value in series [1] was “no risk of lethal overdose”.
